The values below come from patent publication EP0271829A2, “Delta-hydroxy-beta-lysine derivatives and their production” (Takeda Chemical Industries, Ltd., priority 1986, dated 1988).

Experiment [1] deals with S. aureus 308A-1. The experiment is described as follows: Antibacterial activity against gram-positive bacteria (MIC on Tripticase Soy Agar). Type of experiment: cell-based. The note with it: Staphylococcus aureus, 308A1, Medium: Tripticase Soy Agar, Inoculum size: 10^8 cfu/ml. The source says:
(§1) Thus obtained Compound (I) is useful as medicines, for example, antibiotics against certain types of gram-positive and gram-negative beacteria. [table] [table]

Experiment [2] deals with S. aureus 308A-1. The experiment is described as follows: Antibacterial activity in mice, s.c. (ED50). The format is in vivo. The note with it: Staphylococcus aureus, 308A1, sc.
From the text: as §1

Broadly, the MIC is the smallest concentration in the dilution series that meets the test's criterion for growth inhibition. In general, ED50 refers to the dose at which the effect has come halfway, by size or by number of responders. Lower therefore signals an effect at a small dose.

Molecules are shown by their SMILES. ≈ marks a conversion by molar mass, not a printed value.

As for `CN(CC(=O)O)NC(=O)C[C@H](N)C[C@@H](O)CN` [Negamycin, 2-(3R,5R)-3,6-diamino-5-hydroxyhexanoyl-1-methylhydrazinoacetic acid, reference compound], the MIC against S. aureus 308A-1 [1] is > 100 µg/mL. In the experiment on S. aureus 308A-1 [2], the ED50 came out at 38.6 mg/kg.
On to `C/C=C\C=C\C(=O)NCC(O)CC(CC(=O)NCCC(=N)N)NC` (stereo not shown) [Compound 80], for which the MIC in the experiment with S. aureus 308A-1 [1] is > 100 µg/mL. This compound also registered a 50% effective dose (ED50) with S. aureus 308A-1 [2] of 9.64 mg/kg.
Turning to `C/C=C\C=C\C(=O)NCC(O)CC(CC(=O)NCCC(=N)N)NC(=O)C(N)CCCCC(=O)OC` (stereo not shown) [Compound 86b], the MIC against S. aureus 308A-1 [1] was > 100 µg/mL. The compound further came in with an ED50 in the experiment on S. aureus 308A-1 [2] of 25 mg/kg.
As for `C=C/C=C/C(=O)NCC(O)CC(N)CC(=O)NCCC(=N)N` (stereo not shown) [Compound 38b], in the experiment with S. aureus 308A-1 [1], the MIC is 100 µg/mL (≈ 321 µM). The compound further showed an ED50 in the experiment on S. aureus 308A-1 [2] of 6.25 mg/kg.
Taken in the same sequence, the figures for `C/C=C\C=C\C(=O)NCC(O)CC(CC(=O)NCCC(=N)N)NCC` (stereo not shown) [Compound 82] were > 100 µg/mL and 25 mg/kg.
